Converted amounts (≈) assume the structure as drawn.
Key:
[1] = test system: serotonin (5-HT) uptake; experiment: Inhibition of 3H 5-HT (serotonin) uptake; assay type: biochemical; conditions: inhibition of 3H 5-HT uptake
[2] = test system: dopamine (DA) uptake; conditions: inhibition of 3H DA uptake

Compound	IC50 3H-5 HT uptake [1]	IC50 3H DA uptake [2]
Cc1cc(O)c2c(=O)c3c(O)cc(O)c4c5c(O)cc(O)c6c(=O)c7c(O)cc(CO)c8c1c2c(c34)c(c65)c78 [Pseudo-hypericin]	27.0 ± 1.1020 µg/mL (≈ 51.9 µM)	1.40 ± 0.13 µg/mL (≈ 2.69 µM)
Hyperforin	4.75 ± 0.79 µg/mL	1.54 ± 0.23 µg/mL

Reference: patent US6428820B2, “Extracts of Hypericum perforatum and formulations containing them” (Indena S.p.A., priority 1999, dated 2002)
